Tests used:
[1] = system: fMLF/CB-induced human neutrophils; test: Superoxide anion generation in fMLF/CB-induced human neutrophils; type: cell-based; conditions: for IC50: mean ± S.E.M. (n = 3 or 4); for inhibition at 10 µM / Superoxide Anion Inhibition (%): at 10 μM concentration, mean ± S.E.M.
Procedure: (§1) Blood samples were collected from healthy adult donors (20-32 years) via venipuncture in accordance with the standard protocol approved by the local institutional review board. Human neutrophils were isolated from peripheral blood through dextran sedimentation, centrifugation in a Ficoll-Hypaque gradient, and hypotonic lysis of red blood cells.
(§2) In accordance with the above-mentioned protocol, assays were performed to measure superoxide anion generation based on the superoxide dismutase-inhibitable reduction of ferricytochrome c; methoxy-succinyl-alanyl-alanyl-prolyl-valine-p-nitroanilide (MeO-Suc-Ala-Ala-Pro-Val-p-nitroanilide) was used as the enzyme substrate for the detection of elastase release.

[2] = system: fMLF/CB-induced human neutrophils; test: Elastase release in fMLF/CB-induced human neutrophils; type: cell-based; conditions: for IC50: mean ± S.E.M. (n = 3 or 4); for inhibition at 10 µM / Elastase Release Inhibition (%): at 10 μM concentration, mean ± S.E.M.
Procedure: as §1, §2

[3] = target: T1, FPR1 receptor (Homo sapiens, UniProt P21462); test: FPR1 receptor binding assay (fNLFNYK, flow cytometry) in human neutrophils; conditions: 10 μM test substance, fNLFNYK 2 nM
T1 construct: endogenous in cells; host or cells: human neutrophils
T1 sequence (P21462 1-350): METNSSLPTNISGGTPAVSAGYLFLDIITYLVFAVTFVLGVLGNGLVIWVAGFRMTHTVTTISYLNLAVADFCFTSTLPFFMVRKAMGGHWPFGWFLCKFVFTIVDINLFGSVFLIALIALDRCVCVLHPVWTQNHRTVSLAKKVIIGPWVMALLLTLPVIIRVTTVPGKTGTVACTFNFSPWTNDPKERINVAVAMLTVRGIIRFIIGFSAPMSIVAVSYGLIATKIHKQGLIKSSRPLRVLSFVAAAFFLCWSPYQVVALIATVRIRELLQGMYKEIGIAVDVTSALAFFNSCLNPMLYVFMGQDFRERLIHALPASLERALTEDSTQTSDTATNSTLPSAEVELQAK
Procedure: Receptor binding assays of the present invention were performed via FACScan™ flow Cytometer analysis of N-formyl-Nle-Leu-Phe-Nle-Tyr-Lys-fluorescein (fNLFNYK; a fluorescent analog of N-formylmethionyl-leucyl-phenylalanine (fMLF)) binding to receptor of human neutrophils; The neutrophils were preincubated with test compounds at 4° C. for 5 min and then labelled with fNLFNYK for 30 min, then the cells were immediately analyzed via flow cytometry.
The receptor-binding assay is based on the binding between N-formyl-Nle-Leu-Phe-Nle-Tyr-Lys-fluorescein (fNLFNYK) and the […] receptor of human neutrophil.

IC50 ([1]; Homo sapiens, Neutrophil) [µM]	IC50 [1] [µM]	IC50 ([2]; Homo sapiens, Neutrophil) [µM]	IC50 [2] [µM]	binding to FPR1 receptor (inhibition of fNLFNYK binding) [3]	Compound	inhibition at 10 µM ([1]; Neutrophil) [%]	inhibition at 10 µM ([2]; Neutrophil) [%]	Superoxide Anion Inhibition (%) [1] [%]	Elastase Release Inhibition (%) [2] [%]
1.63 to 8.07	2.96 ± 0.91	1.63 to 8.07	1.63 ± 0.15		C=C(CC[C@@H](C)C1CCC([C@@H]2CC=C3C[C@@H](O)CC[C@]3(C)C2=O)[C@]1(C)CCO)C(C)C (stereo partly drawn) [Compound 4, 8βH-3β,11-dihydroxy-24-methylene-9,11-secocholest-5-en-9-one]	91.1 ± 4.51	93.7 ± 1.23		
	4.09 ± 0.5		> 10		CC(C)[C@@H](C)CC[C@@H](C)[C@H]1CC[C@@H]([C@@H]2CC=C3C[C@@H](O)CC[C@]3(C)C2=O)[C@]1(C)CCO [Compound 6, (24S)-3β,11-dihydroxy-24-methyl-9,11-secocholest-5-en-9-one]			60.51 ± 4.06	25.38 ± 6.68
	> 10		> 10		CC(C)[C@@H](C)[C@@]1(C)C[C@@H]1[C@@H](C)[C@H]1CC[C@@H]([C@@H]2CC=C3C[C@@H](O)CC[C@]3(C)C2=O)[C@]1(C)CCO [Compound 7, 3β,11-dihydroxy-9,11-secogorgost-5-en-9-one]			10.29 ± 5.42	18.87 ± 3.86
	8.07 ± 0.53		4.73 ± 0.57		leptosterol A [Compound 5]			57.93 ± 2.30	86.32 ± 2.91

Further lines, the compound ahead of its results:

Compound	IC50 ([1]; Homo sapiens, Neutrophil) [µM]	IC50 [1] [µM]	IC50 ([2]; Homo sapiens, Neutrophil) [µM]	IC50 [2] [µM]	binding to FPR1 receptor (inhibition of fNLFNYK binding) [3]	inhibition at 10 µM ([1]; Neutrophil) [%]	inhibition at 10 µM ([2]; Neutrophil) [%]	Superoxide Anion Inhibition (%) [1] [%]	Elastase Release Inhibition (%) [2] [%]
C=C(CC[C@@H](C)C1CCC([C@H]2CC=C3C[C@@H](O)CC[C@]3(C)C2=O)[C@]1(C)CCO)C(C)C (stereo partly drawn) [Compound 3, 8αH-3β,11-dihydroxy-24-methylene-9,11-secocholest-5-en-9-one]	1.63 to 8.07	1.97 ± 0.12	1.63 to 8.07	3.12 ± 0.07		90.5 ± 2.44	112 ± 5.01		
sinleptosterol A [Compound 1]		7.07 ± 0.52		7.57 ± 0.4	low affinity			64.76 ± 3.42	65.04 ± 2.76
sinleptosterol B [Compound 2]		4.68 ± 0.57		4.29 ± 0.25				76.30 ± 5.09	105.09 ± 5.25

— patent US12274704B2, “9,11-secosteroids and the use of 9,11-secosteroids in preparing pharmaceutical compositions for inhibiting inflammation” (Chang Gung University of Science and Technology, priority 2020, dated 2025)
